Experimental data reported in US8586125B2, “Thermal treatment of an implantable medical device” (Advanced Cardiovascular Systems, Inc., priority 1999, dated 2013).
Values joined by “and” are separate entries in the source; they are usually repeats but may differ in a detail not shown here. Equal entries are not always repeated. Where two headings read alike, the source gives them in different places. Starred links: 1 amine or outer side, 2 acyl side, 3 side chain; linkers in the order of their positions; H or OH if unused. Positions of bridges follow the written chain, without caps; N, C: chain ends. Non-standard residues stand in square brackets, D forms with d. Residues, ends and D or L forms follow the SMILES beside them. Chains are numbered I, II in the order given. Actinocin(9to1) = Cc1c2oc3c(C)ccc(C(=O)[*:1])c3nc-2c(C(=O)[*:2])c(N)c1=O; NMeV = CN[C@H](C(=O)O)C(C)C; Sar = CNCC(=O)O

What was measured:
[1] = 24 hour elution of vinblastine from EVOH coated stents in phosphated saline solution, HPLC; format: physicochemical; conditions: for Total microgram Released / microgram Release per Hour / microgram Released: Unsterilized stent
Experimental: Multi-Link™ stents were cleaned by placement in an ultrasonic bath of isopropyl alcohol solution for 10 minutes. The stents were dried and plasma cleaned in a plasma chamber. An EVOH solution was made with 1 gram of EVOH and 7 grams of DMSO, making an EVOH:DMSO ratio of 1:7. Vinblastine was added to the 1:7 EVOH:DMSO solution. Vinblastine constituted 2.5% by weight of the total weight of the solution. The solution was vortexed and placed in a tube. The cleaned Multi-Link™ stents were attached to mandrel wires and dipped into the solution. The coated stents were passed over a hot plate, for about 3-5 seconds, with a temperature setting of about 60° C. The coated stents were cured for 6 hours in an air box then placed in a vacuum oven at 60° C. for 24 hours. The above process was repeated twice, having a total of three layers. The average weight of the coating was 0.00005 gram, with an estimated vinblastine concentration of 12 microgram per stent. Some of the stents were sterilized by electron beam radiation. The sterilized and unsterilized vinblastine coated stents were tested for a 24 hour elution period by placing one sterilized and one unsterilized stent in 5 ml of phosphated saline solution (pH 7.4) at room temperature with rotational motion. The amount of vinblastine eluted was evaluated by High Performance Liquid Chromatography (HPLC) analysis. The results of this test are given below and plotted in FIG. 7.

[2] = system: Medial smooth muscle cells (SMC); test: Inhibition of SMC proliferation, thymidine incorporation; format: cell-based; conditions: Rattus norvegicus, read-out: IC50 (concentration at which 50% of the cells stop proliferating)
Experimental: Medial smooth muscle cells (SMC) were isolated from rat aorta and cultured according to explant methods known to one of ordinary skill in the art. Cells were harvested via trypsinization and subcultivated. Cells were identified as vascular SMC through their characteristic hill-and-valley growth pattern as well as indirect immunofluorescence with monoclonal anti SMC α-actin. Studies were performed with cells at passage 3-4. SMC monolayers were established on 24 well culture dishes, scrape wounded and treated with actinomycin D, mytomycin and docetaxel. The cells were exposed to the drug solution of different concentrations for 2 hours and then washed with buffered saline solution. The proliferation of the cells was quantified by standard technique of thymidine incorporation.
The IC50 (concentration at which 50% of the cells stop proliferating) of actimomycin D was 10^−9M as compared to 5×10^−5M for mitomycin and 10^−6M for docetaxel.

[3] = system: Porcine Coronary Artery Model; test: Reduction in restenosis in the porcine coronary artery model, drug delivered with microporous balloon catheter; format: in vivo, Domestic swine; conditions: for Percent Diameter Stenosis (QCA): 28-day endpoint; for Percent Stenosis (IEL area-lumen area)/IEL area / Residual Lumen (Lumen area)/IEL area: histomorphometric
Experimental: Porcine coronary models were used to assess the degree of the inhibition of neointimal formation in the coronary arteries of a porcine stent injury model by actinomycin D, delivered with a microporous balloon catheter (1×10^6 pores/mm^2 with sizes ranging from 0.2-0.8 micron).
The preclinical animal testing was performed in accordance with the NIH Guide for Care and Use of Laboratory Animals. Domestic swine were utilized to evaluate effect of the drug on the inhibition of the neointimal formation. Each testing procedure, excluding the angiographic analysis at the follow-up endpoints, was conducted using sterile techniques. During the study procedure, the activated clotting time (ACT) was monitored regularly to ensure appropriate anticoagulation. Base line blood samples were collected for each animal before initiation of the procedure. Quantitative coronary angiographic analysis (QCA) and intravascular ultrasound (IVUS) analysis was used for vessel size assessment.
The vessels at the sites of the delivery were denuded by inflation of the PTCA balloons to 1:1 balloon to artery ratio and moving the balloons back and forth 5 times. The drug was delivered to the denuded sites at 3.5 atm (3.61 Kg/sq cm) for 2 minutes using the microporous balloon catheters before stent deployment. The average volume of delivery was about 3.3+/−1.2 ml. Following drug delivery, stents were deployed at the delivery site such that final stent to artery ratio was 1.1:1.
QCA and IVUS analyses were used for stent deployment guidance. Pre-stenting IVUS measurements of the lumen size at the targeted vessel sites were performed for determination of the balloon (size) inflation pressure. Quantitative analysis of the stented coronary arteries to compare pre-stenting, post-stenting, follow-up minimal luminal diameters, stent recoil, and balloon/stent to artery ratio were performed. Following stent implantation and final angiogram, all devices were withdrawn and the wounds closed; the animals were allowed to recover from anesthesia as managed by the attending veterinarian or animal care professionals at the research center.
Upon return to the research laboratory at the 28-day endpoint, angiographic assessments were performed. Coronary artery blood flow was assessed and the stented vessels were evaluated to determine minimal lumen diameter. The animals were euthanized following this procedure at the endpoint. Following euthanasia, the hearts were pressure perfusion fixed with formalin and prepared for histological analysis, encompassing light microscopy, and morphometry. Morphometric analysis of the stented arteries included assessment of the position of the stent struts and determination of vessel/lumen areas, percent (%) stenosis, injury scores, intimal and medial areas and intima/media ratios. Percent stenosis is quantitated by the following equation: 100(IEL area−lumen area)/IEL area
where IEL is the internal elastic lamia.
The control group of animals received delivery of water instead of the drug. The test group of animals received actinomycin D in two different concentration of 10^−5M and 10^−4M. […] FIGS. 9A and 9B illustrate sample pictures of the histology slides of the coronary vessels from the control and the Dose 1 group, respectively.

[4] = system: porcine coronary arteries; test: Positive remodeling: actinomycin D/EVOH coated stents in porcine coronary arteries, 28 days; format: in vivo
Excerpt: In vivo data is provided illustrated positive remodeling caused by the application of actinomycin D. Stents coated with EVOH impregnated with actinomycin D and a control group of stents coated with EVOH free from actinomycin D were implanted in porcine coronary arteries. The animals were sacrificed at the end of 28 days. […] The index of remodeling was 1.076 (8.54/7.94).
FIGS. 10A and 10B illustrate sample pictures of the histology slides of the coronary vessels from the control group 64 RCA (Right Coronary […]) and the actinomycin D loaded stent group 68 LAD (Left Anterior Descending), respectively. The stent used was an Advanced Cardiovascular Systems Multi-Link Duet™ (stainless steel). As is illustrated by FIG. 10B, the positive remodeling of EEL 80, caused by the application of actinomycin D, creates a gap between stent struts 82 and EEL 80. Thrombus deposits, illustrated by reference number 84, are formed in the gap over time. The use of a self-expandable stent eliminates the formation of the gap as the stent self-expands in response to the positive remodeling of IEL. Thrombus deposits can be, accordingly, eliminated.
Actinomycin D induces the positive remodeling of the vessel walls, more particularly positive remodeling of the external elastic lamina (EEL) of a blood vessel wall. Positive remodeling is generally defined as the ability of the vessel walls to structurally adapt, by increasing in lumen size, to chronic stimuli. A positively remodeled lumen wall has a greater diameter or size as compared to a lumen wall which has not been subjected to the remodeling effect. Accordingly, the flow of blood through the remodeled site is increased—flow which would have otherwise been reduced because of, for example, the presence of plaque build-up or migration and proliferation of cells. The index of remodeling is defined by the ratio of the area circumscribed by the EEL of the lesion site to the area circumscribed by the EEL of a reference site. As a result of the positive remodeling of the EEL, the internal elastic lamina (IEL), in response, can also increases in area or diameter. Actinomycin D, or analogs or derivative thereof, not only can inhibit abnormal or inappropriate migration and/or proliferation of smooth muscle cells, which can lead to restenosis, but can also induce positive remodeling of the blood vessel walls. Thus the widening of the diseased region becomes more pronounced.

[5] = Sterilized stent, Time 0.5 Hours
[6] = Sterilized stent, Time 24 Hours
[7] = average of vessel sections, 28 days
[8] = individual vessel sections (ID # animal, artery, d/m/p), 28 days
[9] = 2 hours drug exposure, scrape wounded SMC monolayers, passage 3-4

CC[C@]1(O)C[C@@H]2CN(CCc3c([nH]c4ccccc34)[C@@](C(=O)OC)(c3cc4c(cc3OC)N(C)[C@H]3[C@@](O)(C(=O)OC)[C@H](OC(C)=O)[C@]5(CC)C=CCN6CC[C@]43[C@@H]65)C2)C1 [Vinblastine]
μg Release ([1]; Sterilized (electron beam) stent, Time 0 Hours): 0 µg | Total μg Released ([1]; Sterilized stent, Time 0 Hours): 0 µg | μg Release per Hour ([1]; Sterilized stent, Time 0 Hours): 0 μg per Hour | Total μg Released [1, 5]: 2.14 µg | μg Release [1, 5]: 2.14 µg | μg Release per Hour [1, 5]: 4.28 μg per Hour | Total μg Released ([1]; Sterilized stent, Time 3 Hours): 3.84 µg | μg Release ([1]; Sterilized stent, Time 3 Hours): 1.7 µg | μg Release per Hour ([1]; Sterilized stent, Time 3 Hours): 0.68 μg per Hour | Total μg Released ([1]; Sterilized stent, Time 4 Hours): 4.12 µg | μg Release ([1]; Sterilized stent, Time 4 Hours): 0.28 µg | μg Release per Hour ([1]; Sterilized stent, Time 4 Hours): 0.28 μg per Hour | Total μg Released ([1]; Sterilized stent, Time 6 Hours): 4.38 µg | μg Release ([1]; Sterilized stent, Time 6 Hours): 0.26 µg | μg Release per Hour ([1]; Sterilized stent, Time 6 Hours): 0.13 μg per Hour | Total μg Released [1, 6]: 6.43 µg | μg Release [1, 6]: 2.05 µg | μg Release per Hour [1, 6]: 0.11 μg per Hour | Total microgram Released ([1]; Time 0 Hours): 0 microgram | microgram Release per Hour ([1]; Time 0 Hours): 0 microgram per Hour | microgram Released ([1]; Time 0 Hours, pH 7.4, room temperature): 0 microgram | Total microgram Released ([1]; Time 0.5 Hours): 2.12 microgram | microgram Release per Hour ([1]; Time 0.5 Hours): 4.24 microgram per Hour | microgram Released ([1]; Time 0.5 Hours): 2.12 microgram | Total microgram Released ([1]; Time 3 Hours): 4.03 microgram | microgram Release per Hour ([1]; Time 3 Hours): 0.76 microgram per Hour | microgram Released ([1]; Time 3 Hours): 1.91 microgram | Total microgram Released ([1]; Time 4 Hours): 4.30 microgram | microgram Release per Hour ([1]; Time 4 Hours): 0.27 microgram per Hour | microgram Released ([1]; Time 4 Hours): 0.27 microgram | Total microgram Released ([1]; Time 6 Hours): 4.68 microgram | microgram Release per Hour ([1]; Time 6 Hours): 0.19 microgram per Hour | microgram Released ([1]; Time 6 Hours): 0.38 microgram | Total microgram Released ([1]; Time 24 Hours): 6.38 microgram | microgram Release per Hour ([1]; Time 24 Hours): 0.09 microgram per Hour | microgram Released ([1]; Time 24 Hours): 1.7 microgram

Cc1c2oc3c(C)ccc(C(=O)N[C@@H]4C(=O)N[C@H](C(C)C)C(=O)N5CCC[C@H]5C(=O)N(C)CC(=O)N(C)[C@@H](C(C)C)C(=O)O[C@@H]4C)c3nc-2c(C(=O)N[C@@H]2C(=O)N[C@H](C(C)C)C(=O)N3CCC[C@H]3C(=O)N(C)CC(=O)N(C)[C@@H](C(C)C)C(=O)O[C@@H]2C)c(N)c1=O [actinomycin D] (I: T[dV]P[Sar][NMeV] / II: T[dV]P[Sar][NMeV]; ester I:1-I:C, II:1-II:C; linker I:N-II:N via Actinocin(9to1))
IC50 ([2]; 2 h): 1 nM | Percent Diameter Stenosis (QCA) ([3]; DOSE 1 1E−05M (n = 10)): 36.8 +/− 9.7% | Percent Diameter Stenosis (QCA) ([3]; DOSE 2 1E−04M (n = 7)): 32.3+/−11.7% | Percent Stenosis (IEL area-lumen area)/IEL area ([3]; DOSE 1 1E−05M (n = 30)): 51.8 +/− 13.8% | Residual Lumen (Lumen area)/IEL area ([3]; DOSE 1 1E−05M (n = 30)): 0.49 +/− 0.14 | Percent Stenosis (IEL area-lumen area)/IEL area ([3]; DOSE 2 1E−04M (n = 21)): 54.1 +/− 11.7% | Residual Lumen (Lumen area)/IEL area ([3]; DOSE 2 1E−04M (n = 21)): 0.46 +/− 0.08 | AVG % EEL growth ([4]; ActD vs EVOH): 7.486% | AVG % IEL growth ([4]; ActD vs EVOH): 13.18% | index of remodeling ([4]; EEL area drug coated / EVOH control (8.54/7.94), 28 days): 1.076 | EEL Area AVG [4, 7]: 8.5425 mm^2 | IEL Area AVG [4, 7]: 7.4727 mm2 | EEL Area [4, 8]: 9.2545 mm^2 and 9.2515 mm^2 and 8.7854 mm^2 and 9.5164 mm^2 and 9.1504 mm^2 and 9.6679 mm^2 and 9.1237 mm^2 and 9.9849 mm^2 and 9.4765 mm^2 and 7.4424 mm^2 and 9.1462 mm^2 and 8.9504 mm^2 and 8.9117 mm^2 and 8.7533 mm^2 and 7.3249 mm^2 and 7.1061 mm^2 and 8.5830 mm^2 and 7.4498 mm^2 and 8.2509 mm^2 and 7.7342 mm^2 and 7.9207 mm^2 and 6.9926 mm^2 and 8.3883 mm^2 and 7.8546 mm^2 | IEL Area [4, 8]: 8.3785 mm2 and 8.5819 mm2 and 8.0964 mm2 and 8.6879 mm2 and 8.0914 mm2 and 8.7181 mm2 and 8.0273 mm2 and 8.5222 mm2 and 8.3796 mm2 and 6.4219 mm2 and 7.7757 mm2 and 7.5392 mm2 and 7.6573 mm2 and 6.9749 mm2 and 6.2815 mm2 and 5.9760 mm2 and 7.6195 mm2 and 6.3785 mm2 and 7.5206 mm2 and 6.9992 mm2 and 6.9632 mm2 and 6.0418 mm2 and 7.4794 mm2 and 6.2324 mm2

CC(=O)O[C@@]12CO[C@@H]1C[C@H](O)[C@@]1(C)C(=O)[C@H](O)C3=C(C)[C@@H](OC(=O)[C@H](O)[C@@H](NC(=O)OC(C)(C)C)c4ccccc4)C[C@@](O)([C@@H](OC(=O)c4ccccc4)[C@H]21)C3(C)C [docetaxel]
IC50 [2, 9]: 1000 nM

CO[C@@]12[C@H](COC(N)=O)C3=C(C(=O)C(C)=C(N)C3=O)N1C[C@@H]1N[C@@H]12 [mitomycin]
IC50 [2, 9]: 50000 nM
